Read-outs that look alike come from different tables or passages of the source.
What was measured:
CRBN/DDB1 = CRBN/DDB1 (Homo sapiens (Human), UniProt Q96SW2); assay type: binding; conditions: His tagged CRBN+DDB-DLS7+CXU4, Cy5-labeled Thalidomide probe, one hour incubation; read-out: CRBN HTRF IC50
Description: The binding potency was determined using H-TRF assay technology (Perkin Elmer). Compounds were serially diluted in DMSO and 0.2 μL volume was transferred to white 384-well plate.

ER in MCF-7 cells = ER in MCF-7 cells (Homo sapiens (Human), UniProt P03372); test: In-cell western (ICW) ER degradation assay in MCF-7 cells (Compounds A1-A70); assay type: cell-based; conditions: MCF-7 cells, 16 hrs treatment; for DC50: ER degradation, 0.02 to 300 nM, read-out: MCF7 ICW DC50; for Dmax: MCF7, maximal ER degradation, read-out: MCF7 ICW Dmax (%)
ER in MCF-7 cells, sequence (P03372 whole entry): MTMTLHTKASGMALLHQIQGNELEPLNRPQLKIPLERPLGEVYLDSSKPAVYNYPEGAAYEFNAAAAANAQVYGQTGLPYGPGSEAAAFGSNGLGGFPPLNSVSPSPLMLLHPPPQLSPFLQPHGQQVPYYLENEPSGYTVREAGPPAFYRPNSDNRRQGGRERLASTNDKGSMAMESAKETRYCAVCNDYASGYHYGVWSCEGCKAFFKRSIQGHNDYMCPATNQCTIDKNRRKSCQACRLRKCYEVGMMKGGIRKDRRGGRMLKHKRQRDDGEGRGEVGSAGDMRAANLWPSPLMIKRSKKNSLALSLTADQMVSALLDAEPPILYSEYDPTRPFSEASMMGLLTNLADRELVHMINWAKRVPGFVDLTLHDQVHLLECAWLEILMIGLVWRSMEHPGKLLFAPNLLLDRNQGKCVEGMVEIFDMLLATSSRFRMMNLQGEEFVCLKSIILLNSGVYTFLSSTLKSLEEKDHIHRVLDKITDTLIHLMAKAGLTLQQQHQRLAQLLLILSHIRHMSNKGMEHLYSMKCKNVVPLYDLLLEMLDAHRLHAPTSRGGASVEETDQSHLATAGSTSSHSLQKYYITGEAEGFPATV
Description: (§1) ERa degradative activity of compounds can be assessed in MCF-7 and T47D Cells. MCF-7 and T47D cell are seeded and are subsequently treated with the compounds at certain concentrations (e.g., 0.02 to 300 nM). DMSO can be used as vehicle control. Cells are fixed and are blocked with Intercept (PBS) Blocking Buffer (e.g., Li—COR, Odyssey Blocking Buffer), and are stained with ER (e.g., 1:500, Cell signaling) primary antibody for overnight at cold room. Secondary Antibody (e.g., IRDye 800CW Goat anti-Rabbit IgG) and CellTag 700 Stain are added in Intercept (PBS) Blocking Buffer. Finally, cell plate is placed in incubator to dry. Image and signal are captured on Odyssey® DLx Imaging System.
(§2) Day 3: After 16 hrs of compounds treatment, cells were fixed by 4% PFA and permeabilized with elution buffer (0.1% Triton X-100 in 1% PBS Solution). Subsequently, cells were blocked with Intercept (PBS) Blocking Buffer (Li—COR, Odyssey Blocking Buffer), and were stained with ER (1:500, Cell signaling) primary antibody for overnight at cold room.
(§3) Day 4: Remove the buffer, add IRDye 800CW Goat anti-Rabbit IgG Secondary Antibody (1:2000) and CellTag 700 Stain (1:500) in Intercept (PBS) Blocking Buffer. Finally, cell plate is placed in incubator to dry. Image and signal were captured on Odyssey® DLx Imaging System.

ER in T47D cells = ER in T47D cells (Homo sapiens (Human), UniProt P03372); test: In-cell western (ICW) ER degradation assay in T47D cells (Compounds A1-A70); assay type: cell-based; conditions: T47D cells, 16 hrs treatment; for DC50: ER degradation, 0.02 to 300 nM; for Dmax: maximal ER degradation, read-out: T47D ICW Dmax (%)
ER in T47D cells, sequence (P03372 whole entry): as above
Description: as §1, §2, §3

CRBN/DDB1, sequence (Q96SW2 whole entry): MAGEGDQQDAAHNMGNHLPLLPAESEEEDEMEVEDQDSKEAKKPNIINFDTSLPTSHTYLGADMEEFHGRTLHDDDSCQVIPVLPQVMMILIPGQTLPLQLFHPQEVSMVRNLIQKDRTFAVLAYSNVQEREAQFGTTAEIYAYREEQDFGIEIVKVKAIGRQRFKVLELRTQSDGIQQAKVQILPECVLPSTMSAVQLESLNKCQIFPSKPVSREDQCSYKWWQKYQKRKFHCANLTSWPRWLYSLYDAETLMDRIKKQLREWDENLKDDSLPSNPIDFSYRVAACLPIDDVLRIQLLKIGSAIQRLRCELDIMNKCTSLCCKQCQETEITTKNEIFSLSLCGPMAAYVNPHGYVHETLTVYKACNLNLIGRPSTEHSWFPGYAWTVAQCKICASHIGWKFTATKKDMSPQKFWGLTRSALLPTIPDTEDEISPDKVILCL
CRBN/DDB1, sequence (Q16531 whole entry partner): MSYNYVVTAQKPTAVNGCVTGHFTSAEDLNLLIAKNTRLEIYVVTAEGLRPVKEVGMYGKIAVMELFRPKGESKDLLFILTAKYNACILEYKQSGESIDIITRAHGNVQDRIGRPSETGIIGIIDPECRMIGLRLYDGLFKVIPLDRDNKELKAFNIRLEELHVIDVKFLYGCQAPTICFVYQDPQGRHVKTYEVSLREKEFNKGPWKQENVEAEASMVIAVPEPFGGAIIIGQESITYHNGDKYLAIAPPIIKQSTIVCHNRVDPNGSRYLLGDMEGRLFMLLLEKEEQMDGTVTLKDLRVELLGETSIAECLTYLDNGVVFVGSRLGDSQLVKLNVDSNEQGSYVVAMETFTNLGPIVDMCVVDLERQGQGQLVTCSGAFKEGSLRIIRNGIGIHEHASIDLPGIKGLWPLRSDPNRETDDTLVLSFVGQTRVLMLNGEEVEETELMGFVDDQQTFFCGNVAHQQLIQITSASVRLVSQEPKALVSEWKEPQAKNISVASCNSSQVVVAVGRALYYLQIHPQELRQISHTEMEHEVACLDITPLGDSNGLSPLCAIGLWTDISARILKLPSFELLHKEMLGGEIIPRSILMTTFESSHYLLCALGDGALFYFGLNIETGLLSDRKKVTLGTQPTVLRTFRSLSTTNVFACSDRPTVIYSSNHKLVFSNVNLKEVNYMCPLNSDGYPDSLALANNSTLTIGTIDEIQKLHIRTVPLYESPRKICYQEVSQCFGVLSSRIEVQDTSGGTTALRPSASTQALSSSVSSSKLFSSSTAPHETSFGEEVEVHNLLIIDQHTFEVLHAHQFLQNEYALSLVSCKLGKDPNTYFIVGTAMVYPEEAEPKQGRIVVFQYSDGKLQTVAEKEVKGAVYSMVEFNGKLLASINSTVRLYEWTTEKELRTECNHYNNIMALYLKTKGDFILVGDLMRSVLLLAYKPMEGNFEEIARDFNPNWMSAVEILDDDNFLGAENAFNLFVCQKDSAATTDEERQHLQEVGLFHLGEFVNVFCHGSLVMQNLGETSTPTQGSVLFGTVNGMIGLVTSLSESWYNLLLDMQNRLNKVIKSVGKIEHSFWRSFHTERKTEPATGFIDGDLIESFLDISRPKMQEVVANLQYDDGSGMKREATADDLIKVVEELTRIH

SMILES	IC50 (CRBN/DDB1)	DC50 (ER in MCF-7 cells)	Dmax (ER in MCF-7 cells)	DC50 (ER in T47D cells)	Dmax (ER in T47D cells; T47D)	Dmax (ER in T47D cells)
COc1cc(N2CCC(CN3CCC(c4ccc(N[C@H]5CCC(=O)NC5=O)cc4F)CC3)CC2)ccc1[C@@H]1c2[nH]c3ccccc3c2C[C@@H](C)N1CC(F)F [Compound A34, (S)-3-((4-(1-((1-(4-((1R,3R)-2-(2,2-difluoroethyl)-3-methyl-2,3,4,9-tetrahydro-1H-pyrido[3,4-b]indol-1-yl)-3-methoxyphenyl)piperidin-4-yl)methyl)piperidin-4-yl)-3-fluorophenyl)amino)piperidine-2,6-dione]	< 50 nM	> 100 nM	< 25%	< 1 nM	25 to 50%	
COc1cc(N2CCC(CN3CCN4c5ccc6c(c5OC[C@H]4C3)CN([C@H]3CCC(=O)NC3=O)C6=O)CC2)ccc1[C@H]1c2[nH]c3ccccc3c2C[C@@H](C)N1CC(F)F [Compound A39, (S)-3-((R)-7-((1-(4-((1S,3R)-2-(2,2-difluoroethyl)-3-methyl-2,3,4,9-tetrahydro-1H-pyrido[3,4-b]indol-1-yl)-3-methoxyphenyl)piperidin-4-yl)methyl)-1-oxo-1,3,5,5a,6,7,8,9-octahydro-2H-pyrazino[1′,2′:4,5][1,4]oxazino[2,3-e]isoindol-2-yl)piperidine-2,6-dione]	50 to 500 nM	< 1 nM	50 to 75%	< 1 nM	50 to 75%	
COc1cc(N2CCC(CN3CCC(c4ccc(N[C@H]5CCC(=O)NC5=O)c(F)c4)CC3)CC2)ccc1[C@@H]1c2[nH]c3ccccc3c2C[C@@H](C)N1CC(F)F [Compound A40, (S)-3-((4-(1-((1-(4-((1R,3R)-2-(2,2-difluoroethyl)-3-methyl-2,3,4,9-tetrahydro-1H-pyrido[3,4-b]indol-1-yl)-3-methoxyphenyl)piperidin-4-yl)methyl)piperidin-4-yl)-2-fluorophenyl)amino)piperidine-2,6-dione]	> 5000 nM			< 1 nM	25 to 50%	
C[C@@H]1Cc2c([nH]c3ccccc23)[C@@H](c2ccc(N3CCC4(CC3)CC(CN3CCN5c6cc7c(cc6OC[C@@H]5C3)C(=O)N([C@H]3CCC(=O)NC3=O)C7)C4)nc2)N1CC(F)F [Compound A11, (S)-3-((S)-3-((7-(5-((1R,3R)-2-(2,2-difluoroethyl)-3-methyl-2,3,4,9-tetrahydro-1H-pyrido[3,4-b]indol-1-yl)pyridin-2-yl)-7-azaspiro[3.5]nonan-2-yl)methyl)-8-oxo-1,2,3,4,4a,5,8,10-octahydro-9H-pyrazino[1′,2′:4,5][1,4]oxazino[2,3-f]isoindol-9-yl)piperidine-2,6-dione]	500 to 5000 nM	1 to 10 nM	50 to 75%			
COc1cc(N2CCC(CN3CCC4(CC3)COc3cc5c(cc34)CN(C3CCC(=O)NC3=O)C5=O)CC2)ccc1[C@@H]1c2[nH]c3ccccc3c2C[C@@H](C)N1CC(F)F (stereo partly drawn) [Compound A33, 3-(1′-((1-(4-((1R,3R)-2-(2,2-difluoroethyl)-3-methyl-2,3,4,9-tetrahydro-1H-pyrido[3,4-b]indol-1-yl)-3-methoxyphenyl)piperidin-4-yl)methyl)-7-oxo-5,7-dihydro-2H,6H-spiro[furo[2,3-f]isoindole-3,4′-piperidin]-6-yl) piperidine-2,6-dione]	50 to 500 nM	1 to 10 nM	< 25%	< 1 nM		50 to 75%
COc1cc(N2CCC3(CCN(C(=O)CN4Cc5cc6c(cc5C4)C(=O)N(C4CCC(=O)NC4=O)C6=O)CC3)CC2)ccc1[C@@H]1c2[nH]c3ccccc3c2C[C@@H](C)N1CC(F)F (stereo partly drawn) [Compound A27, 6-(2-(9-(4-((1R,3R)-2-(2,2-difluoroethyl)-3-methyl-2,3,4,9-tetrahydro-1H-pyrido[3,4-b]indol-1-yl)-3-methoxyphenyl)-3,9-diazaspiro[5.5]undecan-3-yl)-2-oxoethyl)-2-(2,6-dioxopiperidin-3-yl)-6,7-dihydropyrrolo[3,4-f]isoindole-1,3(2H,5H)-dione]	500 to 5000 nM	< 1 nM	50 to 75%	< 1 nM	> 75%	
C[C@@H]1Cc2c([nH]c3ccccc23)[C@@H](c2cnc(N3CCN(CC4CCN(c5ccc(N6CCC(=O)NC6=O)cc5)CC4)CC3)nc2)N1CC(F)F [Compound A38, 1-(4-(4-((4-(5-((1R,3R)-2-(2,2-difluoroethyl)-3-methyl-2,3,4,9-tetrahydro-1H-pyrido[3,4-b]indol-1-yl)pyrimidin-2-yl)piperazin-1-yl)methyl)piperidin-1-yl)phenyl)dihydropyrimidine-2,4(1H,3H)-dione]	500 to 5000 nM			1 to 10 nM	< 25%	
COc1cc(N2CCC(CN3CCN(c4ccc(NC5CCC(=O)NC5=O)c(F)c4)CC3)CC2)ccc1[C@@H]1c2[nH]c3ccccc3c2C[C@@H](C)N1CC(F)F (stereo partly drawn) [Compound A41, 3-((4-(4-((1-(4-((1R,3R)-2-(2,2-difluoroethyl)-3-methyl-2,3,4,9-tetrahydro-1H-pyrido[3,4-b]indol-1-yl)-3-methoxyphenyl)piperidin-4-yl)methyl)piperazin-1-yl)-2-fluorophenyl)amino)piperidine-2,6-dione]	500 to 5000 nM			10 to 100 nM	25 to 50%	
COc1cc(N2CCC(CN3CCN(c4ccc(C5CCC(=O)NC5=O)cc4)CC3)CC2)ccc1[C@@H]1c2[nH]c3ccccc3c2C[C@@H](C)N1CC(F)F (stereo partly drawn) [Compound A46, 3-(4-(4-((1-(4-((1R,3R)-2-(2,2-difluoroethyl)-3-methyl-2,3,4,9-tetrahydro-1H-pyrido[3,4-b]indol-1-yl)-3-methoxyphenyl)piperidin-4-yl)methyl)piperazin-1-yl)phenyl)piperidine-2,6-dione]	50 to 500 nM			< 1 nM	25 to 50%	
COc1cc(N2CCC(CN3CCN(c4cnc(C(=O)NC5CCC(=O)NC5=O)cc4OC)CC3)CC2)ccc1[C@@H]1c2[nH]c3ccccc3c2C[C@@H](C)N1CC(F)F (stereo partly drawn) [Compound A56, 5-(4-((1-(4-((1R,3R)-2-(2,2-difluoroethyl)-3-methyl-2,3,4,9-tetrahydro-1H-pyrido[3,4-b]indol-1-yl)-3-methoxyphenyl)piperidin-4-yl)methyl)piperazin-1-yl)-N-(2,6-dioxopiperidin-3-yl)-4-methoxypicolinamide]	> 5000 nM	< 1 nM	50 to 75%			
C[C@@H]1Cc2c([nH]c3ccccc23)[C@@H](c2ccc(N3CCC4(CC3)CC(CN3CCN5c6ccc7c(c6OC[C@@H]5C3)CN([C@H]3CCC(=O)NC3=O)C7=O)C4)nc2)N1CC(F)F [Compound A24, (S)-3-((S)-7-((7-(5-((1R,3R)-2-(2,2-difluoroethyl)-3-methyl-2,3,4,9-tetrahydro-1H-pyrido[3,4-b]indol-1-yl)pyridin-2-yl)-7-azaspiro[3.5]nonan-2-yl)methyl)-1-oxo-1,3,5,5a,6,7,8,9-octahydro-2H-pyrazino[1′,2′:4,5][1,4]oxazino[2,3-e]isoindol-2-yl)piperidine-2,6-dione]	< 50 nM	10 to 100 nM	25 to 50%			
C[C@@H]1Cc2c([nH]c3ccccc23)[C@@H](c2cnc(N3CCC(CN4CCN5c6ccc7c(c6OC[C@@H]5C4)CN(C4CCC(=O)NC4=O)C7=O)CC3)nc2)N1CC(F)F (stereo partly drawn) [Compound A5, 3-((S)-7-((1-(5-((1R,3R)-2-(2,2-difluoroethyl)-3-methyl-2,3,4,9-tetrahydro-1H-pyrido[3,4-b]indol-1-yl)pyrimidin-2-yl)piperidin-4-yl)methyl)-1-oxo-1,3,5,5a,6,7,8,9-octahydro-2H-pyrazino[1′,2′:4,5]oxazino[2,3-e]isoindol-2-yl)piperidine-2,6-dione]	50 to 500 nM	1 to 10 nM	50 to 75%			
C[C@@H]1Cc2c([nH]c3ccccc23)[C@@H](c2cnc(N3CCC4(CCC(CN5CCN6c7cc8c(cc7OC[C@@H]6C5)C(=O)N([C@H]5CCC(=O)NC5=O)C8)CC4)CC3)nc2)N1CC(C)(C)F [Compound A9, (S)-3-((S)-3-((3-(5-((1R,3R)-2-(2-fluoro-2-methylpropyl)-3-methyl-2,3,4,9-tetrahydro-1H-pyrido[3,4-b]indol-1-yl)pyrimidin-2-yl)-3-azaspiro[5.5]undecan-9-yl)methyl)-8-oxo-1,2,3,4,4a,5,8,10-octahydro-9H-pyrazino[1′,2′:4,5][1,4]oxazino[2,3-f]isoindol-9-yl)piperidine-2,6-dione]	> 5000 nM	< 1 nM	25 to 50%			

From patent publication US20260007681A1, “INDOLE DERIVATIVES AS ESTROGEN RECEPTOR DEGRADERS” (REGENTS OF THE UNIVERSITY OF MICHIGAN, priority 2022, published 2026)
